# Assay results published in the supplement of paper PMC7214452.
# Assays:
# Assay in all cases: normalized area under the dose-response curve (viability relative to DMSO control) (fraction); higher = less sensitive (more viable cells)
# Conditions in all cases: exposure time not given
# [1] = system: OCI-MY5/CRBN (cancer type: MM)
# Method: (§1)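 25 myeloma and 15 non-Hodgkin lymphoma cell lines were exposed to each of 76 drugs as 7-point log dilutions (0.01 nM–10 µM) in duplicate. Viability was read with CellTiter-Glo and normalised to DMSO (0.1%) and staurosporine (10 µM) plate controls. Normalised AUC was calculated by the trapezoidal method relative to the negative control.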
# [2] = system: JeKo-1 (cancer type: Mantle)
# Method: as §1
# [3] = system: OCI-MY7 (cancer type: MM)
# Method: as §1
# MM1.R (cancer type: MM) = system: MM1.R (cancer type: MM)
# Method: as §1
# JJN3 (cancer type: MM) = system: JJN3 (cancer type: MM)
# Method: as §1
# OPM2 (cancer type: MM) = system: OPM2 (cancer type: MM)
# Method: as §1
# [4] = system: NCI-H929 (cancer type: MM)
# Method: as §1
# [5] = system: SU-DHL6 (cancer type: DLBCL)
# Method: as §1
# KMS11 (cancer type: MM) = system: KMS11 (cancer type: MM)
# Method: as §1
# [6] = system: Karpas-299 (cancer type: TCL)
# Method: as §1
# [7] = system: HuT 78 (cancer type: TCL)
# Method: as §1
# [8] = system: OCI-MY5 (cancer type: MM)
# Method: as §1
# EJM (cancer type: MM) = system: EJM (cancer type: MM)
# Method: as §1
# LP1 (cancer type: MM) = system: LP1 (cancer type: MM)
# Method: as §1
# Se-Ax (cancer type: TCL) = system: Se-Ax (cancer type: TCL)
# Method: as §1
# [9] = system: RPMI 8226 (cancer type: MM)
# Method: as §1
# [10] = system: OCI-LY19 (cancer type: DLBCL)
# Method: as §1
# [11] = system: OCI-MY5/Vec (cancer type: MM)
# Method: as §1
# AMO1 (cancer type: MM) = system: AMO1 (cancer type: MM)
# Method: as §1
# [12] = system: KMS28PE (cancer type: MM)
# Method: as §1
# MM1.S (cancer type: MM) = system: MM1.S (cancer type: MM)
# Method: as §1
# XG2 (cancer type: MM) = system: XG2 (cancer type: MM)
# Method: as §1
# L363 (cancer type: MM) = system: L363 (cancer type: MM)
# Method: as §1
# KMS34 (cancer type: MM) = system: KMS34 (cancer type: MM)
# Method: as §1
# KMS26 (cancer type: MM) = system: KMS26 (cancer type: MM)
# Method: as §1
# [13] = system: SU-DHL2 (cancer type: DLBCL)
# Method: as §1
# [14] = system: Granta-519 (cancer type: Mantle)
# Method: as §1
# [15] = system: SU-DHL1 (cancer type: TCL)
# Method: as §1
# [16] = system: Mino (cancer type: Mantle)
# Method: as §1
# FR4 (cancer type: MM) = system: FR4 (cancer type: MM)
# Method: as §1
# [17] = system: KMS28BM (cancer type: MM)
# Method: as §1
# SKMM2 (cancer type: MM) = system: SKMM2 (cancer type: MM)
# Method: as §1
# KMS18 (cancer type: MM) = system: KMS18 (cancer type: MM)
# Method: as §1
# [18] = system: SR-786 (cancer type: TCL)
# Method: as §1
# [19] = system: KMS12PE (cancer type: MM)
# Method: as §1
# [20] = system: OCI-LY3 (cancer type: DLBCL)
# Method: as §1
# [21] = system: JVM2 (cancer type: Mantle)
# Method: as §1
# My-La (cancer type: TCL) = system: My-La (cancer type: TCL)
# Method: as §1
# [22] = system: OCI-LY1 (cancer type: DLBCL)
# Method: as §1
# U266 (cancer type: MM) = system: U266 (cancer type: MM)
# Method: as §1
Structure (SMILES),normalized area under the dose-response curve [1],normalized area under the dose-response curve [2],normalized area under the dose-response curve [3],normalized area under the dose-response curve (MM1.R (cancer type: MM)),normalized area under the dose-response curve (JJN3 (cancer type: MM)),normalized area under the dose-response curve (OPM2 (cancer type: MM)),normalized area under the dose-response curve [4],normalized area under the dose-response curve [5],normalized area under the dose-response curve (KMS11 (cancer type: MM)),normalized area under the dose-response curve [6],normalized area under the dose-response curve [7],normalized area under the dose-response curve [8],normalized area under the dose-response curve (EJM (cancer type: MM)),normalized area under the dose-response curve (LP1 (cancer type: MM)),normalized area under the dose-response curve (Se-Ax (cancer type: TCL)),normalized area under the dose-response curve [9],normalized area under the dose-response curve [10],normalized area under the dose-response curve [11],normalized area under the dose-response curve (AMO1 (cancer type: MM)),normalized area under the dose-response curve [12],normalized area under the dose-response curve (MM1.S (cancer type: MM)),normalized area under the dose-response curve (XG2 (cancer type: MM)),normalized area under the dose-response curve (L363 (cancer type: MM)),normalized area under the dose-response curve (KMS34 (cancer type: MM)),normalized area under the dose-response curve (KMS26 (cancer type: MM)),normalized area under the dose-response curve [13],normalized area under the dose-response curve [14],normalized area under the dose-response curve [15],normalized area under the dose-response curve [16],normalized area under the dose-response curve (FR4 (cancer type: MM)),normalized area under the dose-response curve [17],normalized area under the dose-response curve (SKMM2 (cancer type: MM)),normalized area under the dose-response curve (KMS18 (cancer type: MM)),normalized area under the dose-response curve [18],normalized area under the dose-response curve [19],normalized area under the dose-response curve [20],normalized area under the dose-response curve [21],normalized area under the dose-response curve (My-La (cancer type: TCL)),normalized area under the dose-response curve [22],normalized area under the dose-response curve (U266 (cancer type: MM))
CC1(C)CCC(CN2CCN(c3ccc(C(=O)NS(=O)(=O)c4ccc(NCC5CCOCC5)c([N+](=O)[O-])c4)c(Oc4cnc5[nH]ccc5c4)c3)CC2)=C(c2ccc(Cl)cc2)C1 [Venetoclax],0.0571,0.686,0.14,0.48,0.354,0.371,0.82,0.0483,0.591,0.829,0.752,0.101,0.615,0.817,0.196,0.481,0.247,0.0321,0.64,0.251,0.57,0.846,0.584,0.525,0.919,0.982,0.212,0.696,0.876,0.617,0.119,0.0382,0.514,0.952,0.09,0.179,0.73,0.872,0.176,0.366
Cc1sc2c(c1C)C(c1ccc(Cl)cc1)=N[C@@H](CC(=O)Nc1ccc(O)cc1)c1nnc(C)n1-2 [otx-015],0.641,0.84,0.4,0.61,0.568,0.7,0.54,0.757,0.656,0.628,0.859,0.491,0.685,0.701,0.657,0.642,0.637,0.563,0.497,0.681,0.56,0.622,0.545,0.514,0.395,0.558,0.902,0.729,0.595,0.732,0.801,0.657,0.713,0.695,0.59,0.759,0.609,0.796,0.752,0.62
Cc1sc2c(c1C)C(c1ccc(Cl)cc1)=N[C@@H](CC(=O)OC(C)(C)C)c1nnc(C)n1-2 [jq1],0.645,0.684,0.39,0.55,0.57,0.671,0.53,0.829,0.654,0.661,0.566,0.488,0.703,0.65,0.566,0.616,0.679,0.57,0.48,0.647,0.53,0.747,0.529,0.501,0.475,0.635,0.899,0.674,0.598,0.613,0.78,0.672,0.813,0.647,0.65,0.707,0.564,0.747,0.812,0.852
CC(=O)c1c(C)c2cnc(Nc3ccc(N4CCNCC4)cn3)nc2n(C2CCCC2)c1=O [Palbociclib],0.9,0.656,0.82,0.77,0.694,0.852,0.91,0.771,0.79,0.837,0.712,0.561,0.733,0.794,0.776,0.636,0.727,0.746,0.529,0.851,0.69,0.656,0.743,0.751,0.769,0.897,0.876,0.705,0.655,0.716,0.932,0.782,0.81,0.821,0.74,0.791,0.65,0.745,0.889,0.688
